Marks after values point to notes of the source that are not given here. Ends that are not written are not given here.
Experiments:
[1] = test system: Patients with BPH and who optionally also had LUTS; experiment: Clinical trial: inability to provide urine volume >125 mL (Qmax unable) after intraprostatic injection; assay type: in vivo, human; details: for improvement in percentage of patients with Qmax failures: FT twice over at least one year; for % of Patients With Inability to Provide Urine Volume >125 mL: intraprostatic
Protocol: (§1) Clinical trials were conducted on numerous individuals having BPH, some of whom also had LUTS. All protocols were done in accordance with applicable regulations, and carried out by physicians.
Patients with BPH and who optionally also had LUTS were given an intraprostatic injection of either a) FT 2.5 mg in phosphate buffered saline pH 7.2 (“PBS”) or b) PBS alone, under double-blind conditions by a urologist in an office setting under ultrasound guidance. Patients were followed for >=3 months to several years with regular physical examinations, laboratory tests, and evaluations of symptoms. […] Subjects who were unable to void >=125 mL despite drinking as much water as they wanted were classified as “Qmax unable”. The numbers of subjects who became Qmax unable was compared in different groups.

[2] = test system: Patients with BPH and who optionally also had LUTS; experiment: Clinical trial: urinary peak flow rate (Qmax) mean change from baseline; assay type: in vivo, human; details: for improvement in peak flow rate mean change from baseline: FT twice over at least one year; for Mean Change of Qmax from baseline: intraprostatic
Protocol: as §1
Patients were followed for >=3 months to several years with regular physical examinations, laboratory tests, and evaluations of symptoms. Urinary peak flow (Qmax) was measured by flow-meter readings using standard techniques, at 3 months and at 12 months or longer in subjects who were able to urinate adequate volume of urine (>125 mL) to provide a valid test. All peak flow measurements were assessed by a blinded central reader. The mean peak flow rate change from baseline was compared in different groups.

[3] = test system: Patients with BPH and who optionally also had LUTS; experiment: Clinical trial: nocturia score (IPSS question 7) mean change from baseline; assay type: in vivo, human; details: for improvement in nocturia score mean change from baseline: FT twice over at least one year; for Nocturia Score Mean Change From Baseline: intraprostatic, IPSS question 7, (SD)
Source text: Improvements in obstructive and irritative symptoms can be measured in accordance with techniques known in the art. For example, uroflowmeters are known to differentiate urine weight change to provide a continuous plot of the flow rate vs. time that is smoothed by internal electronic filtering to permit precise (±5%) measurement of Qmax. Schafer W, et al. “Good urodynamic practices: Uroflowmetry, filling cystometry and pressure-flow studies,” Neurourol Urodynamics, Vol. 21, pp. 261-74 (2002). Nocturia can be measured in a variety of manners, most of which involve patients completing a questionnaire before and after treatment to establish a baseline, and then determine the difference (improvement, lack of improvement, worsening, etc.) from baseline after treatment. Exemplary questionnaires include evaluating the scores from the nocturia question included in the International Prostate Symptom Score (IPSS), assessing the number of nocturnal voids (Boyarsky symptom score), the Madsen-Iversen Symptom Score, and the ICSmale questionnaire. See, e.g., Chartier-Kastler, et al., “The Measurement of Nocturia and its Impact on Quality of Sleep and Quality of Life in LUTS/BPH,” Eur. Urol. Supp., Vol. 5, pp. 3-11 (2006). A preferred method of measuring nocturia is by determining the mean change from baseline of the nocturia question in the IPSS (question 7). Question 7 solicits from the patient how many times over the past month they had to get up to urinate from the time they went to bed until the time they got up—the score ranging from none (score 0) to 5 or more times (score 5).
as §1
Patients with BPH and who optionally also had LUTS were given an intraprostatic injection of either a) FT2.5 in 10 mL phosphate buffered saline pH 7.2 (“PBS”) or b) FT 5.0 mg in PBS or c) FT 2.5 mg in PBS 2-dosages given >1 year apart, or d) PBS 10 mL alone, under double-blind conditions by a urologist in an office setting under ultrasound guidance. Patients were followed for >=3 months to several years with regular physical examinations, laboratory tests, and evaluations of symptoms. The mean difference from baseline nocturia scores to follow-up scores (nocturia scores are the values provided to question #7 in the IPSS) were calculated in FT treated subjects given single dose FT 2.5 mg, single dose FT 0.5 mg, 2-dose 2.5 mg>1 year apart, and Placebo treated controls.

[4] = test system: prostate glandular epithelial cells; experiment: Tissue culture genetic array, in vitro; assay type: cell-based; details: tissue culture genetic array data
Source text: FT selectively causes loss of cell membrane integrity, mitochondrial metabolic arrest, depletion of RNA, DNA lysis and aggregation, and cell fragmentation and cell loss. The apoptotic process leads to typical ultrastructural progressive changes of membranous disruption and swelling, progressively deepening nuclear invaginations with eventual membranous bleb formations and cell death and fragmentation into apoptotic bodies. Histologically, typical apoptotic changes with positive immunohistochemical staining of markers for apoptosis are found throughout the injected areas for up to several weeks after treatment.

[5] = compared to a single administration of four times the amount
[6] = compared to a single administration of twice the amount
[7] = Two Doses of 2.5 mg FT > 1 year apart

Substance: Fexapotide Triflutate (IDQQVLSRIKLEIKRCL; also: trifluoroacetate salt) [FT]
- inhibition of the progression of urinary flow worsening ([1]; 2 single dosages of 2.5 mg separated by >1 year, vs one-time 5.0 mg or 10.0 mg dose): significantly better inhibition
- improvement in percentage of patients with Qmax failures [1, 5]: about 83.3%
- improvement in percentage of patients with Qmax failures [1, 6]: about 81.4%
- improvement in percentage of patients with Qmax failures ([1]; compared to the control): about 77%
- % of Patients With Inability to Provide Urine Volume >125 mL ([1]; Single Dose of 5.0 mg FT, 90 days after last treatment): 21%* (90 days)
- % of Patients With Inability to Provide Urine Volume >125 mL ([1]; Single Dose of 10.0 mg FT, 90 days after last treatment): 23.3%** (90 days)
- % of Patients With Inability to Provide Urine Volume >125 mL ([1]; Two Doses of 2.5 mg FT > 1 year apart, 180 days after last treatment): 3.9% (180 days)
- inhibition of the progression of urinary flow worsening ([1]; double (two 2.5 mg doses) or 4X (four 2.5 mg doses) single dose, vs single dose 2.5 mg): did not have significantly better response than single dose 2.5 mg
- inhibition of the progression of urinary flow worsening ([1]; single dose of FT 2.5 mg, after 3 months, vs control groups): not significantly better than control groups
- improvement in peak flow rate mean change from baseline [2, 5]: about 47%
- improvement in peak flow rate mean change from baseline [2, 6]: about 102%
- improvement in peak flow rate mean change from baseline ([2]; compared to the control): about 111%
- Mean Change of Qmax from baseline ([2]; Single Dose of 5.0 mg FT): 1.28 mL/s
- Mean Change of Qmax from baseline ([2]; Single Dose of 10.0 mg FT): 1.76 mL/s
- Mean Change of Qmax from baseline [2, 7]: 2.59 mL/s
- improvement in nocturia score mean change from baseline ([3]; compared to a single administration of the same individual amount): about 37%
- improvement in nocturia score mean change from baseline ([3]; compared to a single administration of twice the individual amount): about 19.4%
- improvement in nocturia score mean change from baseline ([3]; compared to the control): about 48%
- Nocturia Score Mean Change From Baseline ([3]; Single Dose of 5.0 mg FT): −0.54 (SD 1.1)*
- Nocturia Score Mean Change From Baseline ([3]; Single Dose of 10.0 mg FT): −0.62 (SD 1.64)*
- Nocturia Score Mean Change From Baseline [3, 7]: −0.74 (SD 1.26)**, ***
- effect on caspase, tumor necrosis factor and BCL pathways [4]: stimulates caspase pathways

— patent publication US11298400B2, “Method of enhancing the therapeutic efficacy of fexapotide triflutate in treating LUTS” (Nymox Corporation, priority 2019, dated 2022)
